The results in this text go back to PMC8480782, “Efficient Dimerization Disruption of Leishmania infantum Trypanothione Reductase by Triazole-phenyl-thiazoles” (Journal of Medicinal Chemistry, 2021).

Series [1] in a line: Cytotoxicity in THP-1 monocyte-derived macrophages (LDH activity). It counts as cell-based, human. Particulars: human; 75 μM (maximum concentration assayed); read-out: Cell viability of amastigote-infected THP-1 monocyte-derived macrophages at 75 μM. The procedure:
THP-1 cells were grown in RPMI-1640 medium (Gibco, Leiden, The Netherlands) supplemented with 10% heat-inactivated FCS, antibiotics, 10 mM HEPES, 2 mM glutamine, and 1 mM sodium pyruvate, pH 7.2, at 37 °C and 5% CO2.
THP-1 monocytes were seeded in a 48-well plate at a concentration of 5 × 10^5 cells/mL (250 μL/well) in RPMI complete medium supplemented with phorbol 12-myristate 13-acetate (PMA) (100 ng/mL). Differentiation of THP-1 monocytes to macrophages was allowed for 24 h at 37 °C and 5% CO2. THP-1-derived macrophages were infected with GFP-expressing axenic amastigotes at 5 × 10^6 parasites/mL in RPMI complete medium for 24 h (250 μL/well). Extracellular amastigotes were washed twice with PBS. The remaining extracellular parasites were challenged for 24 h with THP-1 medium supplemented with 10% horse serum (Gibco) instead of FCS. Cells were washed twice with PBS, and treatments were performed in 250 μL of fresh RPMI medium supplemented with 10% horse serum for 72 h at 37 °C and 5% CO2. Afterward, treatments were removed by two PBS washes. Lysis of infected cells was performed with 120 μL of SDS 0.005% (w/v) in PBS. After a 30 min incubation at 37 °C, lysis was stopped by adding RPMI complete medium with PI at 20 μg/mL (120 μL/well). The lysates were transferred to a 96-well plate (200 μL/well), and the GFP^+ amastigotes extracted from the infected cells were acquired by a Beckman Coulter FC500 flow cytometer. Each sample (100 μL) was acquired for 20 s.
Cytotoxicity of THP-1 infected macrophages was determined using an in-house developed lactate dehydrogenase (LDH) activity assay. LDH activity assays from the remaining cell lysates (100 μL/well) were carried out at 37 °C in 250 μL of Tris/HCl buffer (pH 8.9, 50 mM) containing DL-lactate (840 mM), NAD^+ (450 μM), 1-methoxyphenazine methosulfate (45 μM), and nitro blue tetrazolium chloride (40 μM). The color intensity of the generated formazan dye was monitored at 570 nm using an EnSpire Multimode Plate Reader (PerkinElmer, Waltham, MA). CC50 values were calculated using a nonlinear regression model with GraFit 6 software (Erithacus, Horley, Surrey, U.K.).

The target of series [2] is T1, human glutathione-disulfide reductase (hGR) (Homo sapiens, UniProt P00390).
T1 construct: HIS (vector pRSETA); made in house
T1 sequence (P00390 44-522): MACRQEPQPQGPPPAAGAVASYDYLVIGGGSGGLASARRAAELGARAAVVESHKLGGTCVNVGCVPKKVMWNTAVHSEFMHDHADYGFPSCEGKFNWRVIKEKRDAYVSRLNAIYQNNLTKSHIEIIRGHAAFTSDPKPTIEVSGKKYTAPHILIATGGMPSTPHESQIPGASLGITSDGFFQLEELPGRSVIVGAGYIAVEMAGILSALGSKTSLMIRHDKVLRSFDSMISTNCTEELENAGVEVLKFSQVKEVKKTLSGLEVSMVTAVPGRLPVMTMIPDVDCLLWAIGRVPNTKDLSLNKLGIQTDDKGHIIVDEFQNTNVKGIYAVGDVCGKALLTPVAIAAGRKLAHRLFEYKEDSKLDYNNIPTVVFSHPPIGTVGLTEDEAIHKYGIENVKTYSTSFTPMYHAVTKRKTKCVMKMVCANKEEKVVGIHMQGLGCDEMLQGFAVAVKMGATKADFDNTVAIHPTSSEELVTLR
Kind of series: hGR oxidoreductase activity, DTNB-coupled assay. The class given is biochemical. An excerpt: The DNA coding sequences for Homo sapiens GR, T. brucei TryR, and T. congolense TryR were polymerase chain reaction (PCR)-amplified and cloned in the pRSETA plasmid. The DNA coding for hGR (transcript variant 1; NCBI Reference Sequence: NM_000637.5) was purchased from GeneScript. Genomic DNA from T. congolense parasites was kindly provided by Dr. Stefan Magez (University of Vrije, Brussels). Genomic DNA from the T. brucei S16 cell line was kindly provided by José M. Pérez-Victoria. Instituto de Parasitología y Biomedicina “López—Neyra” CSIC. HIS-tagged recombinant T. brucei and T. congolense TryRs (TbTryR and TcoTryR, respectively) were purified from E. coli as already explained for LiTryR.
hGR oxidoreductase activity was determined spectrophotometrically using a DTNB-coupled assay. Briefly, reactions were carried out at 37 °C in 250 μL of HEPES buffer (pH 7.5, 40 mM) containing EDTA (1 mM), NADP^+, (60 μM), DTNB (150 μM), oxidized glutathione (50 μM), NADPH (300 μM), glycerol (0.02%), DMSO (1.75%), and recombinant hGR (7 nM). […] TNB concentration was obtained by multiplying the absorbance values by 100 (50 μM TNB generates 0.5 arbitrary units of absorbance at 412 nm). All of the assays were conducted in at least three independent experiments. Data were analyzed using a nonlinear regression model with GraFit 6 software (Erithacus, Horley, Surrey, U.K.).

In another series the target is T2, LiTryR (Leishmania infantum, UniProt A4HSF7).
T2 construct: HIS (N); made in house; host or cells: E. coli BL21 (DE3) Rossetta
T2 sequence (A4HSF7 1-491): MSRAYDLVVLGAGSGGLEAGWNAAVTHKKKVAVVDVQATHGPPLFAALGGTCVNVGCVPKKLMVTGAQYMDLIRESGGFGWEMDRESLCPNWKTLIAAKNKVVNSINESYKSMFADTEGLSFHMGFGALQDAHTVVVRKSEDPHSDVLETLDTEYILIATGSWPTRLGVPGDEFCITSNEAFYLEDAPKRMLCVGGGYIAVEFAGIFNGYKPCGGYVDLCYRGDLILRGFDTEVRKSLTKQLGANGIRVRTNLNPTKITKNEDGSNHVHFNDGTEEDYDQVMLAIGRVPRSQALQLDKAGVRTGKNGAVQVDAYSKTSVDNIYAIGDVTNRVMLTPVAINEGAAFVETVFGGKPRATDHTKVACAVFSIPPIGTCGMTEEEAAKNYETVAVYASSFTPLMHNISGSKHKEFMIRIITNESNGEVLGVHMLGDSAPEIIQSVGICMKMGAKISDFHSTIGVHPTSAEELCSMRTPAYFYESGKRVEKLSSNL
The series is described as follows: Trypanothione-dependent NADPH oxidation assay (initial velocities). The class given is biochemical. The procedure: Despite the loss of activity observed during the reaction, dependency of the initial velocities (vi) on 19a and TS2 concentrations could be fitted to a model in which a rapid equilibrium is reached between the free enzyme and inhibitor (E + I) and the enzyme/inhibitor (EI) complex (Scheme 4). This analysis, based on vi values, was performed both in a DTNB-coupled assay and in a direct NADPH-oxidation assay (Figure S1 and Table S1).
Figure S1. Noncompetitive hyperbolic inhibition of Li TryR by 19a. Initial velocities were used for determination of the KKi value and assessment of the inhibition modality of 19a by two different methods: DTNB-coupled assay (absorbance readings at 412 nm) (A) and trypanothione- dependent NADPH oxidation assay (absorbance readings at 340 nm) (B).
Lineweaver–Burk plots of reciprocal initial velocities ( vi) versus reciprocals of four TS2 concentrations (12.5, 25, 50 and 100 μM) are shown. Experimental conditions in both experiments were similar to those described in the experimental section except that for the NADPH oxidation assay NADPH concentration was raised to 500 µM, NADP+ to 100 µM and 4.8 mM of oxidized glutathione was added. Data were f itted using the hyperbolic noncompetitive- mode equation described by Leskovac: […]
Table S1. Estimation of β and Ki in the noncompetitive hyperbolic inhibition mechanism by […]

By viability is commonly meant the share of living cells, or the viability signal relative to a control. For `NCCCCc1cn(-c2ccc(-c3nc(CCc4ccc(-c5ccccc5)cc4)cs3)c(OCCN3CCNC3=O)c2)nn1.O=C(O)C(F)(F)F` [12c, 1-(2-(2-(4-(2-([1,1′-Biphenyl]-4-yl)ethyl)thiazol-2-yl)-5-(4-(4-ammoniumbutyl)-1H-1,2,3-triazol-1-yl)phenoxy)ethyl)imidazolidin-2-one 2,2,2-Trifluoroacetate], the viability at 72 h, 75 µM in series [1] came out at 100%. Still for that read-out and setting: the result for `NCCCc1cn(-c2ccc(-c3nc(CCc4ccc(-c5ccccc5)cc4)cs3)c(OCCN3CCNC3=O)c2)nn1.O=C(O)C(F)(F)F` [12i] reads 100%. Consider `NCCCCc1cn(-c2ccc(-c3nc(-c4ccccc4)cs3)c(OCCN3CCNC3=O)c2)nn1.O=C(O)C(F)(F)F` [12n], for which the “inhibitory activity against hGR” value in series [2] is on record as “none of these compounds showed any inhibitory activity”. For `NCCCCc1cn(-c2ccc(-c3nc(CCc4ccc5c(c4)CCCN5)cs3)c(OCCN3CCNC3=O)c2)nn1.O=C(O)C(F)(F)F.O=C(O)C(F)(F)F` [12q], the viability at 72 h, 75 µM in series [1] stood at 67%. For `NCCCCc1cn(-c2ccc(-c3nc(CCc4ccc5c(c4)CCO5)cs3)c(OCCN3CCNC3=O)c2)nn1.O=C(O)C(F)(F)F` [12r], the “inhibitory activity against hGR” value in series [2] is “none of these compounds showed any inhibitory activity”.

One may read the Ki as a dissociation constant, usually derived from enzyme kinetics or from competition with a known ligand. Turning to `NCCCCc1cn(-c2ccc(-c3nc(-c4ccccc4)c(-c4ccccc4)s3)c(OCCN3CCNC3=O)c2)nn1.O=C(O)C(F)(F)F` [19a, 1-(2-(5-(4-(4-Ammoniobutyl)-1H-1,2,3-triazol-1-yl)-2-(4,5-diphenylthiazol-2-yl)phenoxy)ethyl)imidazolidin-2-one 2,2,2-Trifluoroacetate], the “inhibitory activity against hGR” value in series [2] is recorded as “none of these compounds showed any inhibitory activity”. For the same molecule, on LiTryR, the affinity corresponds to a Ki of 2.5 ± 0.7 µM. For the same molecule, on LiTryR (NADPH oxidation assay, initial velocities, alpha value of 1), the “β, noncompetitive hyperbolic inhibition mechanism” value was determined as 0.2 ± 0.1.

Regarding `NCCCCc1cn(-c2ccc(-c3nc(-c4ccc(Oc5ccccc5)cc4)c(-c4ccccc4)s3)c(OCCN3CCNC3=O)c2)nn1.O=C(O)C(F)(F)F` [19c, 1-(2-(5-(4-(4-Ammoniobutyl)-1H-1,2,3-triazol-1-yl)-2-(4-([4-phenyloxyphenyl]-1-yl)-5-phenylthiazol-2-yl)phenoxy)ethyl)imidazolidin-2-one 2,2,2-Trifluoroacetate], in series [1], the viability at 72 h, 75 µM was 63%.
